“Also recorded” adds a separate entry of the source.
Tests used:
[1] = Decay of AP4 A / ATP in incubated rabbit blood collected at the end of AP4 A infusion (ex vivo); type: in vitro ADME; settings: for level of AP4 A as compared to baseline: 37° C.
Description: Blood samples were collected from the carotid artery through a catheter before and after (0, 10, 20, 40, and 60 minutes) infusion of AP4 A. Blood was anticoagulated by mixing with 0.15 volume of acid-citrate-dextrose solution. An aliquot of blood collected at the end of AP4 A infusion (to sample) was incubated at 37° C. and sampled at 10, 20, 40, and 60 minutes to evaluate the in vitro decay of AP4 A. Blood samples of […] 3% perchloric acid and kept at 0° C. for 30 minutes with intermittent vortexing. The acid soluble fraction was recovered by centrifugation at 1000 g for 10 minutes and neutralized by 5M K2 CO3. It was then kept at -80° C. until assay of the nucleotides. The AP4 A assay was performed by coupling the phosphodiesterase and luciferase reactions in a luminometer (Model 6100 Picolite, Packard, Downers Grove, Ill.). The detailed method of AP4 A and ATP assays has been reported elsewhere (Kim, B. K., Chao, F. C., Leavitt, R., Fauci, A. S., Meyers, K. M. and Zamecnik, P. C. Blood, 66:735-737, 1985).
The disappearance of infused AP4 A in the circulation and in incubated blood was studied in 2 rabbits. Mean values of hemoglobin, hematocrit and platelet count were 10.1 g/dl, 30.8% and 362,000/ul respectively. The blood content of AP4 A in the rabbits was 51 nmol/1 blood prior to infusion. […] Kim, B. K. et al., Blood, 66:735-737 (1985); Flodgaard, H., Zamecnik, P. C. Meyers, K. and Klenow, H., Thrombosis Research, 37:345-351 (1986). […] A very rapid disappearance of infused AP4 A was observed, with complete clearance within 10 minutes after infusion. When blood samples obtained at the end of AP4 A infusion were incubated at 37° C., only 15-fold and 4-fold levels of AP4 A, as compared to baseline could be detected after 10 minutes and 20 minutes respectively.

[2] = test system: rabbit platelet aggregation by ADP; test: ADP-induced aggregation of rabbit platelets; type: cell-based
Description: (§1) Rabbit carotid arterial blood was collected in 3.8% sodium citrate (9 volumes blood to 1 volume citrate). Platelet rich plasma (PRP) and platelet poor plasma (PPP) were prepared by centrifugation at 150 g and 1,000 g for 10 minutes respectively. Aggregation studies were performed in a Chrono-Log (Havertown, Pa.) aggregometer with ADP or collagen as aggregating agents. ADP (Sigma Chemical Co.) was used in a final concentration of 2×10^-5 M. Calf skin collagen (Sigma Chemical Co.) was used in a final concentration of 200 ug/ml.
The effect of AP4 A on rabbit platelet aggregation by ADP and collagen was tested. […] The anti-aggregatory effect of AP4 A was detected at a concentration of 2×10^-4 M (tenfold that of ADP) and increased in a dose-response pattern with increasing concentrations (FIG. 1).

[3] = test system: collagen-induced aggregation of platelets; test: Collagen-induced aggregation of platelets recovered from AP4 A-infused rabbits; type: in vivo, rabbit; settings: 50 mg per kg over 2 hours; collagen 200 ug/ml (FIG. 4)
Description: After preliminary trials, a standard AP4 A infusion protocol was established as follows: A dose of AP4 A at 50 mg/kg was reconstituted in 10 ml of normal saline and infused by pump at a uniform rate over two hours. Control rabbits received 10 ml of saline alone. The intracarotid cannula was inserted, and the re-establishment of blood flow timed at 15 minutes into the infusion. Upon the completion of infusion at 2 hours, the intracarotid tubing was removed, and its contents flushed out into a petri dish. The presence of a clot or of liquid blood contents was noted.
as §1

With `Nc1ncnc2c1ncn2[C@@H]1O[C@H](COP(=O)(O)OP(=O)(O)OP(=O)(O)OP(=O)(O)OC[C@H]2O[C@@H](n3cnc4c(N)ncnc43)[C@H](O)[C@@H]2O)[C@@H](O)[C@H]1O` [AP4 A, diadenosine 5',5'"-p^1,p^4 -tetraphosphate] the “level of AP4 A as compared to baseline” value ([1]; ex vivo, after 10 minutes) was 15 fold, the “level of AP4 A as compared to baseline” value ([1]; ex vivo, after 20 minutes) was 4 fold and the “ATP, umol/l blood” value ([1]; ex vivo, 10 min at 37° C.) was 570.1 umol/l blood. For the same compound, the “ATP, umol/l blood” value ([1]; ex vivo, 20 min at 37° C.) was 559.3 umol/l blood, the “ATP, umol/l blood” value ([1]; ex vivo, 40 min at 37° C.) was 551.5 umol/l blood and the “ATP, umol/l blood” value ([1]; ex vivo, 60 min at 37° C.) was 572.0 umol/l blood. The “ex vivo decay compared to in vivo clearance” value ([1]; rabbit blood) was “significantly longer; also recorded: slightly longer”, the concentration at 10 min ([1]; rabbit, blood, iv, 50 mg/kg, ex vivo, 10 min at 37° C., read-out: AP4 A, umol/l blood) was 0.799 µmol/L and the concentration at 20 min ([1]; rabbit, blood, iv, 50 mg/kg, ex vivo, 20 min at 37° C., read-out: AP4 A, umol/l blood) was 0.21 µmol/L. The concentration at 40 min ([1]; rabbit, blood, iv, 50 mg/kg, ex vivo, 40 min at 37° C., read-out: AP4 A, umol/l blood) was 0.041 µmol/L, the concentration at 1 h ([1]; rabbit, blood, iv, 50 mg/kg, ex vivo, 60 min at 37° C., read-out: AP4 A, umol/l blood) was 0.037 µmol/L and the minimal effective concentration ([2]; Oryctolagus cuniculus, Platelet, ADP 2×10^-5 M (tenfold that of ADP), read-out: concentration at which the anti-aggregatory effect was detected) was 200 µM. The “effect of addition during ADP aggregation” value ([2]; added during aggregation, ADP 2×10^-5 M) was “blunted the secondary wave response to ADP and caused the dispersion of aggregated platelets”, the “inhibition of ADP-induced aggregation” value ([2]; same dose as tested with collagen) was “almost complete inhibition” and the “effect on collagen-induced aggregation after AP4 A infusion” value [3] was “little effect”.
